# Data: US20080280920A1, “Plasminogen Activator Inhibitor-1 Inhibitors” (priority 2005, published 2008)
# How the values were obtained:
# wildtype human PAI-1 = molecular target: T1, wildtype human PAI-1 (Homo sapiens, UniProt P05121); test: PAI-1/uPA assay (residual uPA activity, fluorescent substrate SpectroFluor); format: biochemical; details: for Percent PAI-1 inhibition: at the concentration given, percent of activity of untreated PAI-1; for Conc. of compound required for PAI-1 inhibition: concentration giving the percent inhibition, 6 nM PAI-1, 8 nM uPA; for Conc. of compound required for PAI-1 inhibition (result in words): within the concentration range tested
# T1 construct: purchased Molecular Innovations Lot# HWT-804
# Experimental: Principle: The assay is based on using a fluorescent substrate (SpectroFluor) to measure residual uPA following inhibition of uPA by PAI-1. PAI-1 used in the assay is pre-treated in the presence of increasing concentrations of the lead compounds to screen for any inhibitory effects on PAI-1. Method: This assay was performed in 96 well microtiter plates. The concentrations of uPA (8 nM) and PAI-1 (6 nM) used in this assay were carefully optimized when using the fluorescent substrate, SpectroFluor™. Stock solutions (10 mM) of all lead compounds were prepared fresh in DMSO. […] 20 μl of 6 nM wildtype human PAI-1 (Molecular Innovations, Lot# HWT-804) was incubated for 15-20 minutes at room temperature in 96 well microtiter plates either with buffer, (50 mM HEPES, 150 mM NaCl, 0.05% Tween-20, 1% BSA, pH 6.6) or various concentrations (10 nM to 100 μM final concentration) of lead compounds in a total volume of 80 μl. A 20 μl aliquot of 8 nM uPA (HMW) solution in 0.05M Tris Buffered™ saline (TBS), pH 8.4 was added to each well and the mixture incubated for an additional 5 minutes at RT. The proteolytic reaction was initiated by addition of 50 μl of 0.1 mM SpectroFluor (Spectrozyme UK Fluorogenic substrate) to each well. The kinetics of the free chromophore, 7-amino-4-methylcoumarin (AMC) released in the course of peptide cleavage by the protease, uPA, was monitored for 30 minutes at 37° C. on a spectrofluorometric microplate reader with an excitation wavelength of 360 nm and emission wavelength of 440 nm. Kinetic data regarding the rate of substrate cleavage by uPA was acquired with Softmax PrO™ software. The difference between the residual uPA activity in the presence or absence of untreated PAI-1, at the molar ratio used, was considered as the “total” PAI-1 activity (100%). The inhibition of uPA by PAI-1 treated with lead compounds was expressed as a percentage of the initial activity of untreated PAI-1. Controls were performed during each experiment to ensure the nearly complete inhibition of uPA by untreated PAI-1 and also to ensure the absence of any direct effect of the lead compounds on uPA alone or on SpectroFluor.
# [1] = molecular target: T2, PAI-1 interaction with vitronectin (Homo sapiens, UniProt P05121); test: PAI-1 vitronectin interaction ELISA; format: binding; details: 15 nM PAI-1, vitronectin coated plates
# T2 construct: purchased Molecular Innovations
# Experimental: Principle: This ELISA assay is based on the interaction of wildtype human PAI-1 (aa 110-145) with the N-terminal somatomedin B-like (SMB) domain (aa 1-40) on vitronectin. PAI-1 was allowed to bind to vitronectin coated plates. The bound PAI-1 was detected with a HRP-conjugated polyclonal goat anti-human PAI-1 antibody using a standard ELISA method. In order to screen these compounds for their ability to disrupt PAI-1's interaction with vitronectin, PAI-1 was pre-incubated with various concentrations of the lead compounds before being allowed to bind to vitronectin.
# Method: Human monomeric vitronectin (Vn; Molecular Innovations) was diluted to a concentration of 2.5 μg/ml in a buffer containing 100 mM Na2CO3, pH 9.6. […]
# In a separate 96-well microtiter plate 20 μL per well of wildtype human PAI-1 (15 nM final concentration) was added with or without various concentrations of lead compounds (1 μM to 1000 μM final concentration) and incubated at room temperature for 15 minutes on a rotating shaker. […] Optical density was measured at 450 nm on a SoftMax PrO™ plate reader.
# Where vitronectin inhibition was evident, IC50 values for a test compound were calculated by fitting a non-linear sigmoidal regression curve to log micromolar concentration versus optical density data.
# T1 sequence (P05121 24-402): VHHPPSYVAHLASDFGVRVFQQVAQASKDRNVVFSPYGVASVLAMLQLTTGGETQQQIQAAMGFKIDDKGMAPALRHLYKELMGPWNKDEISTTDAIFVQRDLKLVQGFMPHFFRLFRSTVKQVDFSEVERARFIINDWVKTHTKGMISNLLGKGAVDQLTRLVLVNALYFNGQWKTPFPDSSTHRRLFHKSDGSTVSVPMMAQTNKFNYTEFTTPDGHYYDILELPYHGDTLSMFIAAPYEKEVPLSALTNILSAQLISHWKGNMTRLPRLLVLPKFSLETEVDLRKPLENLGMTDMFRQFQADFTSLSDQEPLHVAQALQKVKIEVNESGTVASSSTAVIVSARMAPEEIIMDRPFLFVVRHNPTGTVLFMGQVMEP
# T2 sequence (P05121 24-402): as above
SMILES,Percent PAI-1 inhibition (wildtype human PAI-1),Conc. of compound required for PAI-1 inhibition (wildtype human PAI-1),Conc. of compound required for PAI-1 inhibition (result in words) (wildtype human PAI-1),IC50 [1]
"CC(C)(C)OC(=O)Nc1ccc(O)c(C(=O)NCCO)c1 [Compound Q012021B, tert-Butyl 4-hydroxy-3-{[(2-hydroxyethyl)amino]carbonyl}phenylcarbamate]",25,10 µM,,
"Cl.O=C(N[C@@H](Cc1csc2ccccc12)C(=O)O)c1cncc(Br)c1 [Compound Q011265, (S)—N-(5-bromonicotinoyl)-3-(thianaphthen-3-yl)alanine hydrochloride]",20,1 µM,,
"O=C(O)c1cc(/C=C2\NC(=O)N(Cc3ccccc3)C2=O)ccc1O [Compound Q013012, 5-[(Z)-(1-benzyl-2,5-dioxoimidazolidin-4-ylidene)methyl]-2-hydroxybenzoic acid]",,,No inhibition,
"O=C(COc1ccc2c(C(F)(F)F)cc(=O)oc2c1)N[C@@H](Cc1csc2ccccc12)C(=O)O [Compound Q012125, (2S)-2-({[2-oxo-4-(trifluoromethyl)-2H-chromen-7-yl]oxy}acetyl)amino-3-(thianaphthen-3-yl)propanoic acid]",,,No inhibition,
"CCOC(=O)[C@H](Cc1csc2ccccc12)NC(=O)[C@@H]1CCCN(C(=O)OC(C)(C)C)C1 [Compound Q012126, (2S)-3-(thianaphthen-3-yl)-2-({[(3R)—N-t-butyloxycarbonylpiperidin-3-yl]carbonyl}amino)propanoic acid ethyl ester]",19,50 µM,,
"CCOC(=O)[C@H](Cc1csc2ccccc12)NC(=O)[C@@H]1CCCNC1 [Compound Q012127, (2S)-3-(thianaphthen-3-yl)-2-({[(3R)-piperidin-3-yl]carbonyl}amino)propanoic acid ethyl ester]",13,250 µM,,
COc1cc(CN[C@@H](Cc2ccccc2)C(=O)O)cc(CN2CCN(c3ccccn3)CC2)c1O [Compound Q012148],,,No inhibition,
CN(C)CCSc1ccc(/C=C2\NC(=O)N(Cc3ccc(OCc4ccccc4)cc3)C2=O)s1 [Compound Q013021],25,1 µM,,
"N=C(N)N1CCC[C@@H](C(=O)N[C@@H](Cc2csc3ccccc23)C(=O)O)C1 [Compound Q012130, (2S)-3-(thianaphthen-3-yl)-2-({[(3R)—N-[amino(imino)methyl]piperidin-3-yl]carbonyl}amino)propionic acid]",,,No inhibition,
"CCOC(=O)[C@H](Cc1csc2ccccc12)NC(=O)COc1ccc2c(C(F)(F)F)cc(=O)oc2c1 [Compound Q012124, (2S)-2-({[2-oxo-4-(trifluoromethyl)-2H-chromen-7-yl]oxy}acetyl)amino-3-(thianaphthen-3-yl)propanoic acid ethyl ester]",13,0.05 µM,,
"Cc1cc(=O)oc2cc(OCC(=O)N[C@@H](Cc3csc4ccccc34)C(=O)O)ccc12 [Compound Q012055A, (S)—N-[(4-methyl-2-oxo-2H-chromen-7-yl)oxyacetyl]-3-(thianaphthen-3-yl)alanine]",41,1 µM,,
"CC(C)(C)OC(=O)N1CCC[C@@H](C(=O)N[C@@H](Cc2csc3ccccc23)C(=O)O)C1 [Compound Q012128, (2S)-3-(thianaphthen-3-yl)-2-({[(3R)—N-t-butyloxycarbonylpiperidin-3-yl]carbonyl}amino)propanoic acid]",14.5,10 µM,,
"CCOC(=O)[C@H](Cc1csc2ccccc12)NC(=O)COc1ccc2c(C)cc(=O)oc2c1 [Compound Q012055, (S)—N-[(4-methyl-2-oxo-2H-chromen-7-yl)oxyacetyl]-3-(thianaphthen-3-yl)alanine ethyl ester]",51,0.05 µM,,
"COc1cc(CNCCc2ccccn2)cc(CN2CCN(c3ccccn3)CC2)c1O [Compound Q012119T, 2-Methoxy-4-({[2-(pyridin-2-yl)ethyl]amino}methyl)-6-[(4-pyridin-2-ylpiperazin-1-yl)methyl]phenol]",,,No inhibition,
O=C1N/C(=C\c2csc3ccccc23)C(=O)N1Cc1csc2ccccc12 [Compound Q013018],,,No inhibition,
"COc1cc(/C=C/C(=O)CC(=O)/C=C/c2ccc(O)c(OC)c2)ccc1O [Curcumin, curcumin, reference compound]",22,0.5 µM,,
COc1cc(/C=C2\NC(=O)N(Cc3ccc(O)cc3)C2=O)cc(CN2CCN(C)CC2)c1O [Compound Q013024],,,No inhibition,
COc1cc(CNc2ccc(C(=O)O)cc2)cc(CN2CCN(c3ccccn3)CC2)c1O [Compound Q012146],,,No inhibition,
CN1C(=N)N/C(=C\c2csc3ccccc23)C1=O [Compound Q012038],35,10 µM,,
"CCOC(=O)[C@H](Cc1ccccc1)NC(=O)Nc1ccc2c(C)cc(=O)oc2c1 [Compound Q012053, (2S)-2-({[(4-Methyl-2-oxo-2H-chromen-7-yl)amino]carbonyl}amino)-3-phenylpropanoic acid ethyl ester]",44,10 µM,,
"COc1cc(CNCCCn2ccnc2)cc(CN2CCN(c3ncccn3)CC2)c1O [Compound Q012110, 2-Methoxy-4-({3-[(1H-imidazol-1-yl)propyl]amino}methyl)-6-[(4-pyrimidin-2-ylpiperazin-1-yl)methyl]phenol]",57,5 µM,,340 µM
O=C1N/C(=C\c2c[nH]c3ccccc23)C(=O)N1Cc1ccccc1 [Compound Q013019],,,No inhibition,
"O=C(N[C@@H](Cc1csc2ccccc12)C(=O)O)[C@@H]1CCCNC1 [Compound Q012129, (2S)-3-(thianaphthen-3-yl)-2-({[(3R)-piperidin-3-yl]carbonyl}amino)propanoic acid]",23,1 µM,,
COc1cc(CNCc2ccc(C(=O)O)cc2)cc(CN2CCN(c3ccccn3)CC2)c1O [Compound Q012136],15,50 µM,,
COc1cc(CNc2ccccn2)cc(CN2CCN(c3ccccn3)CC2)c1O [Compound Q012143],22,250 µM,,
